{"source": "patent US12410164B2", "about": "“Heterocyclic compounds and medical use thereof” (FONDAZIONE TELETHON, priority 2018, dated 2025)", "molecular_target": "F508del-CFTR (Homo sapiens, UniProt P13569, DEL508-508)", "sequence (P13569 with tags, fused parts or gaps DEL508-508)": "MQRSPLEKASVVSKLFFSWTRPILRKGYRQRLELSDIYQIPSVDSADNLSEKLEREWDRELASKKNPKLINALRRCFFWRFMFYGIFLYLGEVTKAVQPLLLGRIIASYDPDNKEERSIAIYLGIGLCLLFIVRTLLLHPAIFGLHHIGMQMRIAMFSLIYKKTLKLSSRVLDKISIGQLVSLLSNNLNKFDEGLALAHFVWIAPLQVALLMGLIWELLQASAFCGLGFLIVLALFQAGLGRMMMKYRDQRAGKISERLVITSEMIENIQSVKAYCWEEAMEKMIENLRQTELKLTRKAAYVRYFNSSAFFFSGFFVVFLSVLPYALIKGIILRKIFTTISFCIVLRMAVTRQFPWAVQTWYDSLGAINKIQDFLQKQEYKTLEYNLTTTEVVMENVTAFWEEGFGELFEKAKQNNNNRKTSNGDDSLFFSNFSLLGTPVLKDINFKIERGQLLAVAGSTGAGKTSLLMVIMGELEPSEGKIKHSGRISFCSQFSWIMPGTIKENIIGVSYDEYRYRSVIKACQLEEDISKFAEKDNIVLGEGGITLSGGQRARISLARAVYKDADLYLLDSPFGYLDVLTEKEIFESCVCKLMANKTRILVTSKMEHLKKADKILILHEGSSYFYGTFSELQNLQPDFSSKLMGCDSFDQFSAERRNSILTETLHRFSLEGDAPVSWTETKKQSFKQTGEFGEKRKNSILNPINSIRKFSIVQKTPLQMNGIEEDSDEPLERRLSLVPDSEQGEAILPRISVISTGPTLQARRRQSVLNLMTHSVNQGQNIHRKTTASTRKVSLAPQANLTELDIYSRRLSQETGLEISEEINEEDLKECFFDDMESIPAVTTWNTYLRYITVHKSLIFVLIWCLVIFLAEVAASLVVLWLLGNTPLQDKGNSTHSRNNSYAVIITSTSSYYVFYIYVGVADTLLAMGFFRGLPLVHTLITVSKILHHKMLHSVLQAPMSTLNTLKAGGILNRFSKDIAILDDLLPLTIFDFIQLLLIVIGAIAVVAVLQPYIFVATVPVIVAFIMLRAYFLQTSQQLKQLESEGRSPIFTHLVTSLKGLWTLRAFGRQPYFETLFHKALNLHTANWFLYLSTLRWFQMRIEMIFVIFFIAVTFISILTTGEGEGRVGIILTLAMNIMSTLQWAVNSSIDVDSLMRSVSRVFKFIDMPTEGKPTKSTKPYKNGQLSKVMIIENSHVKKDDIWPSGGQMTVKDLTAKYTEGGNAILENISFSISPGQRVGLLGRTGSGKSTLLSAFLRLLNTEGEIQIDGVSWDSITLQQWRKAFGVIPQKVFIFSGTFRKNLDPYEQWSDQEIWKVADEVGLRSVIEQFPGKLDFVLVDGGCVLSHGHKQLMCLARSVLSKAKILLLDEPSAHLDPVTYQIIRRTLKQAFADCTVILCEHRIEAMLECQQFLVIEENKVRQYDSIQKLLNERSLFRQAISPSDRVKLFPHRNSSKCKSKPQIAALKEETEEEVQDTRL", "test": "Transepithelial short-circuit current in primary bronchial epithelial cells of F508del homozygous CF patient", "assay_type": "cell-based", "set-up": "endogenous in cells; host or cells: primary bronchial and nasal epithelial cells from CF patients homozygous for F508del", "method": "The culture and functional study of human primary nasal and bronchial epithelial cells have been described in detail above (Scudieri P, et al. J Physiol. 2012, 590, 6141-6155). Briefly, nasal epithelial cells were taken after informed consent using the “brushing” technique. […] With this mode, the transepithelial potential difference is locked to zero and the resulting current, supplied by the Voltage Clamp is recorded by an AD/DA converter (PowerLab, ADInstruments).\nThe cells were grown in such a way as to generate differentiated epithelia on porous supports (Snapwell). […] As a channel-protein able to mediate a chloride ion flux, CFTR activity is detected as a transepithelial ionic current. […]", "note": "Entries after “also recorded” stand apart in the source; their conditions may differ."}
{"smiles": "CCOC(=O)c1c(Br)c2c(n1Cc1ccc(C)cc1)-c1[nH]c(=O)c(S(=O)(=O)c3ccccc3)cc1CC2", "note": "[PP008, Ethyl 7-(benzenesulfonyl)-3-bromo-1-[(4-methylphenyl)methyl]-8-oxo-4,5,8,9-tetrahydro-1H-pyrrolo[3,2-h]quinoline-2-carboxylate]", "values": [{"measurement": "F508del-CFTR activity (current blocked by inh-172)", "setting": "compound 10 μM alone, 24 h incubation", "value": "significantly increased; also recorded: significant increase in current"}, {"measurement": "F508del-CFTR activity (current blocked by inh-172) of combination", "setting": "compound 10 μM plus VX-809 1 μM, 24 h", "value": "significantly greater than the sum of the effects of the individual correctors"}]}
